Reference: PubChem BioAssay (NCI)
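Cells were grown in 96-well plates and exposed to each compound for 48 hours at five concentrations; endpoints were interpolated linearly between bracketing concentrations, or set to the highest concentration if not reached. Abbreviation: GI50, concentration required for 50% inhibition of growth. At the TGI there is no net growth.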

Columns and labels:
Assay in all cases: DTP human tumour cell line panel, 48 h; in the data active means GI50 below about 0.43 µM; inactive means the rest
[1] = system: MDA-MB-435
[2] = system: SN12C renal
[3] = system: SK-OV-3 ovarian
[4] = system: ACHN renal
[5] = system: OVCAR-4 ovarian
[6] = system: IGROV1 ovarian
[7] = system: SK-MEL-2 melanoma
[8] = system: SK-MEL-28 melanoma
[9] = system: HCT-15 colon
[10] = system: LOX IMVI melanoma
[11] = system: SF-295 CNS
[12] = system: HT29 colon
[13] = system: HOP-92 NSCLC
[14] = system: COLO 205 colon
[15] = system: RXF 393 renal
[16] = system: UO-31 renal
[17] = system: M14 melanoma
[18] = system: NCI-H522 lung
[19] = system: RPMI-8226 leukemia
[20] = system: SK-MEL-5 melanoma
[21] = system: HCT-116 colon
[22] = system: NCI-H226 lung
[23] = system: A498 renal
[24] = system: 786-0 renal
[25] = system: MOLT-4 leukemia
[26] = system: BT-549 breast
[27] = system: HOP-62 NSCLC
[28] = system: OVCAR-5 ovarian
[29] = system: SR leukemia
[30] = system: NCI/ADR-RES ovarian
[31] = system: EKVX NSCLC
[32] = system: SNB-75 CNS
[33] = system: SW-620 colon
[34] = system: U251 CNS
[35] = system: UACC-257 melanoma
[36] = system: CAKI-1 renal
[37] = system: MALME-3M melanoma
[38] = system: MCF7 breast
[39] = system: OVCAR-8 ovarian
[40] = system: KM12 colon
[41] = system: A549 NSCLC
[42] = system: HL-60(TB) leukemia
[43] = system: MDA-MB-231 breast
[44] = system: SF-268 CNS
[45] = system: SF-539 CNS
[46] = system: K-562 leukemia
[47] = system: HS 578T breast
[48] = system: TK-10 renal
[49] = system: OVCAR-3 ovarian
[50] = system: DU-145 prostate
[51] = system: SNB-19 CNS
[52] = system: UACC-62 melanoma
[53] = system: HCC-2998 colon
[54] = system: T-47D breast
[55] = system: PC-3 prostate

CCOC(=O)Cc1csc(NC(=O)COC(=O)c2ccc(N)cc2)n1
inactive: GI50 [1] > 100 µM | GI50 [2] > 100 µM | GI50 [3] > 100 µM | GI50 [4] > 100 µM | GI50 [5] 72 µM | GI50 [6] 21.8 µM | GI50 [7] > 100 µM | GI50 [8] > 100 µM | GI50 [9] > 100 µM | GI50 [10] 14.1 µM | GI50 [11] > 100 µM | GI50 [12] 56.9 µM | GI50 [13] 20.7 µM | GI50 [14] > 100 µM | GI50 [15] > 100 µM | GI50 [16] 76.6 µM | GI50 [17] > 100 µM | GI50 [18] 18.8 µM | GI50 [19] 40.4 µM | GI50 [20] 97.6 µM | GI50 [21] > 100 µM | GI50 [22] > 100 µM | GI50 [23] > 100 µM | GI50 [24] 23.8 µM | GI50 [25] 28.5 µM | GI50 [26] > 100 µM | GI50 [27] > 100 µM | GI50 [28] 59.3 µM | GI50 [29] 13.4 µM | GI50 [30] > 100 µM | GI50 [31] > 100 µM | GI50 [32] 54.4 µM | GI50 [33] > 100 µM | GI50 [34] > 100 µM | GI50 [35] > 100 µM | GI50 [36] > 100 µM | GI50 [37] > 100 µM | GI50 [38] 97.9 µM | GI50 [39] 95.7 µM | GI50 [40] > 100 µM | GI50 [41] > 100 µM | GI50 [42] 20 µM | GI50 [43] > 100 µM | GI50 [44] 23.6 µM | GI50 [45] 19.3 µM | GI50 [46] 88.3 µM | GI50 [47] > 100 µM | GI50 [48] > 100 µM | GI50 [49] 18.8 µM | GI50 [50] > 100 µM | GI50 [51] > 100 µM | GI50 [52] > 100 µM | GI50 [53] > 100 µM | GI50 [54] 75.4 µM | GI50 [55] 68.4 µM
> 100 µM: TGI [1] | TGI [2] | TGI [3] | TGI [4] | TGI [5] | TGI [7] | TGI [8] | TGI [9] | TGI [11] | TGI [12] | TGI [14] | TGI [15] | TGI [16] | TGI [17] | TGI [19] | TGI [20] | TGI [21] | TGI [22] | TGI [23] | TGI [26] | TGI [27] | TGI [28] | TGI [30] | TGI [31] | TGI [32] | TGI [33] | TGI [34] | TGI [35] | TGI [36] | TGI [37] | TGI [38] | TGI [39] | TGI [40] | TGI [41] | TGI [43] | TGI [46] | TGI [47] | TGI [48] | TGI [50] | TGI [51] | TGI [52] | TGI [53] | TGI [54] | TGI [55]
50.7 µM: TGI [49]
34.6 µM: TGI [10]
40 µM: TGI [18]
45.2 µM: TGI [29]
49.8 µM: TGI [6]
41.3 µM: TGI [42]
60 µM: TGI [44]
44.8 µM: TGI [13]
81.4 µM: TGI [25]
56.9 µM: TGI [24]
37 µM: TGI [45]
